# Where a name gives a salt, the structure may show the parent alone.
# Target: T1, human EP4 (hEP4) receptor (Homo sapiens, UniProt P35408)
# T1 construct: expressed in transfected cells; host or cells: HEK-293 T cells, transient co-transfection with polyethylenimine
# Assay: In vitro human EP4 functional antagonist activity using BRET biosensors (cAMP EPAC biosensor, TCS2510 stimulation)
# Assay type: cell-based
# Settings: antagonist activity vs EC60 TCS2510, hEP4 in HEK-293 T cells
# Procedure, shortened: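 HEK-293T cells transiently co-transfected with hEP4 and EPAC cAMP BRET biosensor (luciferase/GFP), assayed 48 h later in HEPES-buffered saline after 1 h at 22 °C. After 5 min with compound, cells stimulated with EC60 TCS2510 and BRET read for 10 min; IC50 from 10-point, 4.5-log variable-slope fits, duplicate, two experiments.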
# T1 sequence (P35408 whole entry): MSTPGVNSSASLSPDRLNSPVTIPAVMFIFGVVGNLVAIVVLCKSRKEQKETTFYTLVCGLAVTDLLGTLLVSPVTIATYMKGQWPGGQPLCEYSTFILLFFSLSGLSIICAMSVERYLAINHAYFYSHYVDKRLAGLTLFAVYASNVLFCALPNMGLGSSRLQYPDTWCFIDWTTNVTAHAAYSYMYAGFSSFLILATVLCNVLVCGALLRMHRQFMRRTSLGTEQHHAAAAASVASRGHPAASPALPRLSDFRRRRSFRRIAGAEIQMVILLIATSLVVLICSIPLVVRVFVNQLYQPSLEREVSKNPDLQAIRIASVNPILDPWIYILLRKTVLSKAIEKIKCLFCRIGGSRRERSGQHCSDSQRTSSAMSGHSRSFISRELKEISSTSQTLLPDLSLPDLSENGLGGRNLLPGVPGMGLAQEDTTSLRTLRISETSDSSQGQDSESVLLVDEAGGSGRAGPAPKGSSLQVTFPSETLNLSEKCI
row,Compound,IC50 [nM]
1,"C[C@H](NC(=O)C1(c2ccc(OCCC3CCCCC3)nc2)CCOCC1)c1ccc(C(=O)O)cc1 [Example 122, 4-[(1S)-1-[[4-[6-(2-Cyclohexylethoxy)-3-pyridyl]tetrahydropyran-4-carbonyl]amino]ethyl]benzoic acid]",< 1000
2,"C[C@H](NC(=O)C1(c2cccc(OCC3CCCCC3)n2)CCCC1)c1ccc(C(=O)O)cc1 [Example 123, 4-[(1S)-1-[[1-[6-(Cyclohexylmethoxy)-2-pyridyl]cyclopentanecarbonyl]amino]ethyl]benzoic acid]",< 1000
3,"C[C@H](NC(=O)C1(c2ccc(OCC3CCCCC3)cn2)CCCC1)c1ccc(C(=O)O)cc1 [Example 127, 4-[(1S)-1-[[1-[5-(Cyclohexylmethoxy)-2-pyridyl]cyclopentanecarbonyl]amino]ethyl]benzoic acid]",< 1000
4,"C[C@H](NC(=O)C1(c2ccc(OCCC3CCCCC3)cn2)CCCC1)c1ccc(C(=O)O)cc1 [Example 128, 4-[(1S)-1-[[1-[5-(2-Cyclohexylethoxy)-2-pyridyl]cyclopentanecarbonyl]amino]ethyl]benzoic acid]",< 1000
5,"C[C@H](NC(=O)C1(c2ccc(OCCC3CCCCC3)nc2)CCCC1)c1ccc(C(=O)O)cc1 [Example 130, 4-[(1S)-1-[[1-[6-(2-Cyclohexylethoxy)-3-pyridyl]cyclopentanecarbonyl]amino]ethyl]benzoic acid]",< 1000
6,"C[C@H](NC(=O)C1(N2CCC[C@H](Oc3cccc(Cl)c3)C2)CCOCC1)c1ccc(C(=O)O)cc1 [Example 134, 4-[(1S)-1-[[4-[(3S)-3-(3-Chlorophenoxy)-1-piperidyl]tetrahydropyran-4-carbonyl]amino]ethyl]benzoic acid, hydrochloride]",< 1000
7,"O=C(O)c1ccc(C2(NC(=O)C3(N4CCC[C@H](Oc5cccc(Cl)c5)C4)CCOCC3)CC2)cc1 [Example 135, 4-[1-[[4-[(3S)-3-(3-Chlorophenoxy)-1-piperidyl]tetrahydropyran-4-carbonyl]amino]cyclopropyl]benzoic acid, hydrochloride]",< 1000
8,"C[C@H](NC(=O)C1(N2CC[C@H](Oc3cccc(Cl)c3)C2)CCOCC1)c1ccc(C(=O)O)cc1 [Example 138, 4-[(1S)-1-[[4-[(3S)-3-(3-Chlorophenoxy)pyrrolidin-1-yl]tetrahydropyran-4-carbonyl]amino]ethyl]benzoic acid, hydrochloride]",< 1000
9,"O=C(O)c1ccc(C2(NC(=O)C3(N4CC[C@H](Oc5cccc(Cl)c5)C4)CCOCC3)CC2)cc1 [Example 139, 4-[1-[[4-[(3S)-3-(3-Chlorophenoxy)pyrrolidin-1-yl]tetrahydropyran-4-carbonyl]amino]cyclopropyl]benzoic acid, hydrochloride]",< 1000
10,"O=C(O)c1ccc(C2(NC(=O)C3(N4CC[C@@H](Oc5ccccc5)C4)CCOCC3)CC2)cc1 [Example 153, 4-[1-[[4-((3R)-3-Phenoxypyrrolidin-1-yl)tetrahydropyran-4-carbonyl]amino]cyclopropyl]benzoic acid, hydrochloride]",< 100
11,"C[C@H](NC(=O)C1(N2CC[C@@H](OC3CCCCC3)C2)CCOCC1)c1ccc(C(=O)O)cc1 [Example 154, 4-[(1S)-1-[[4-[(3R)-3-(Cyclohexyloxy]pyrrolidin-1-yl]tetrahydropyran-4-carbonyl]amino]ethyl]benzoic acid, hydrochloride]",< 100
12,"C[C@H](NC(=O)C1(N2CC[C@@H](Oc3cccc(Cl)c3)C2)CCCCC1)c1ccc(C(=O)O)cc1 [Example 155, 4-[(1S)-1-[[1-[(3R)-3-(3-Chlorophenoxy)pyrrolidin-1-yl]cyclohexane-1-carbonyl]amino]ethyl]benzoic acid, hydrochloride]",< 100
13,"C[C@H](NC(=O)C1(N2CC[C@@H](Oc3cccc(Cl)c3)C2)CCC(F)(F)CC1)c1ccc(C(=O)O)cc1 [Example 156, 4-[(1S)-1-[[1-[(3R)-3-(3-Chlorophenoxy)pyrrolidin-1-yl]-4,4-difluorocyclohexane-1-carbonyl]amino]ethyl]benzoic acid, hydrochloride]",< 100

# Further lines, results first:
row,IC50 [nM],Compound
1,< 100,"C[C@H](NC(=O)C1(c2ccnc(OCC3CCCCC3)c2)CCCC1)c1ccc(C(=O)O)cc1 [Example 124, 4-[(1S)-1-[[1-[2-(Cyclohexylmethoxy)-4-pyridyl]cyclopentanecarbonyl]amino]ethyl]benzoic acid]"
2,< 100,"C[C@H](NC(=O)C1(c2ccc(OCC3CCCCC3)nc2)CCCC1)c1ccc(C(=O)O)cc1 [Example 129, 4-[(1S)-1-[[1-[6-(Cyclohexylmethoxy)-3-pyridyl]cyclopentanecarbonyl]amino]ethyl]benzoic acid]"
3,< 100,"C[C@H](NC(=O)C1(N2CCC[C@@H](Oc3cccc(Cl)c3)C2)CCOCC1)c1ccc(C(=O)O)cc1 [Example 136, 4-[(1S)-1-[[4-[(3R)-3-(3-Chlorophenoxy)-1-piperidyl]tetrahydropyran-4-carbonyl]amino]ethyl]benzoic acid, hydrochloride]"
4,< 100,"O=C(O)c1ccc(C2(NC(=O)C3(N4CCC[C@@H](Oc5cccc(Cl)c5)C4)CCOCC3)CC2)cc1 [Example 137, 4-[1-[[4-[(3R)-3-(3-Chlorophenoxy)-1-piperidyl]tetrahydropyran-4-carbonyl]amino]cyclopropyl]benzoic acid, hydrochloride]"
5,< 100,"C[C@H](NC(=O)C1(N2CC[C@@H](Oc3cccc(Cl)c3)C2)CCOCC1)c1ccc(C(=O)O)cc1 [Example 140, 4-[(1S)-1-[[4-[(3R)-3-(3-Chlorophenoxy)pyrrolidin-1-yl]tetrahydropyran-4-carbonyl]amino]ethyl]benzoic acid, hydrochloride]"
6,< 100,"O=C(O)c1ccc(C2(NC(=O)C3(N4CC[C@@H](Oc5cccc(Cl)c5)C4)CCOCC3)CC2)cc1 [Example 141, 4-[1-[[4-[(3R)-3-(3-Chlorophenoxy)pyrrolidin-1-yl]tetrahydropyran-4-carbonyl]amino]cyclopropyl]benzoic acid, hydrochloride]"
7,< 100,"C[C@H](NC(=O)C1(N2CC[C@@H](Oc3cccc(F)c3)C2)CCOCC1)c1ccc(C(=O)O)cc1 [Example 142, 4-[(1S)-1-[[4-[(3R)-3-(3-Fluorophenoxy)pyrrolidin-1-yl]tetrahydropyran-4-carbonyl]amino]ethyl]benzoic acid, hydrochloride]"
8,< 100,"O=C(O)c1ccc(C2(NC(=O)C3(N4CC[C@@H](Oc5cccc(F)c5)C4)CCOCC3)CC2)cc1 [Example 143, 4-[1-[[4-[(3R)-3-(3-Fluorophenoxy)pyrrolidin-1-yl]tetrahydropyran-4-carbonyl]amino]cyclopropyl]benzoic acid, hydrochloride]"
9,< 100,"C[C@H](NC(=O)C1(N2CC[C@@H](Oc3cccc(C(F)(F)F)c3)C2)CCOCC1)c1ccc(C(=O)O)cc1 [Example 144, 4-[(1S)-1-[[4-[(3R)-3-[3-(Trifluoromethyl)phenoxy]pyrrolidin-1-yl]tetrahydropyran-4-carbonyl]amino]ethyl]benzoic acid, hydrochloride]"
10,< 100,"O=C(O)c1ccc(C2(NC(=O)C3(N4CC[C@@H](Oc5cccc(C(F)(F)F)c5)C4)CCOCC3)CC2)cc1 [Example 145, 4-[1-[[4-[(3R)-3-[3-(Trifluoromethyl)phenoxy]pyrrolidin-1-yl]tetrahydropyran-4-carbonyl]amino]cyclopropyl]benzoic acid, hydrochloride]"
11,< 100,"C[C@H](NC(=O)C1(N2CC[C@@H](Oc3cccc(OC(F)(F)F)c3)C2)CCOCC1)c1ccc(C(=O)O)cc1 [Example 146, 4-[(1S)-1-[[4-[(3R)-3-[3-(Trifluoromethoxy)phenoxy]pyrrolidin-1-yl]tetrahydropyran-4-carbonyl]amino]ethyl]benzoic acid, hydrochloride]"
12,< 100,"O=C(O)c1ccc(C2(NC(=O)C3(N4CC[C@@H](Oc5cccc(OC(F)(F)F)c5)C4)CCOCC3)CC2)cc1 [Example 147, 4-[1-[[4-[(3R)-3-[3-(Trifluoromethoxy)phenoxy]pyrrolidin-1-yl]tetrahydropyran-4-carbonyl]amino]cyclopropyl]benzoic acid, hydrochloride]"
13,< 100,"COc1cccc(O[C@@H]2CCN(C3(C(=O)N[C@@H](C)c4ccc(C(=O)O)cc4)CCOCC3)C2)c1 [Example 148, 4-[(1S)-1-[[4-[(3R)-3-(3-Methoxyphenoxy)pyrrolidin-1-yl]tetrahydropyran-4-carbonyl]amino]ethyl]benzoic acid, hydrochloride]"
14,< 100,"COc1cccc(O[C@@H]2CCN(C3(C(=O)NC4(c5ccc(C(=O)O)cc5)CC4)CCOCC3)C2)c1 [Example 149, 4-[1-[[4-[(3R)-3-(3-Methoxyphenoxy)pyrrolidin-1-yl]tetrahydropyran-4-carbonyl]amino]cyclopropyl]benzoic acid, hydrochloride]"
15,< 100,"Cc1cccc(O[C@@H]2CCN(C3(C(=O)N[C@@H](C)c4ccc(C(=O)O)cc4)CCOCC3)C2)c1 [Example 150, 4-[(1S)-1-[[4-[(3R)-3-(3-Methylphenoxy)pyrrolidin-1-yl]tetrahydropyran-4-carbonyl]amino]ethyl]benzoic acid, hydrochloride]"
16,< 100,"Cc1cccc(O[C@@H]2CCN(C3(C(=O)NC4(c5ccc(C(=O)O)cc5)CC4)CCOCC3)C2)c1 [Example 151, 4-[1-[[4-[(3R)-3-(3-Methylphenoxy)pyrrolidin-1-yl]tetrahydropyran-4-carbonyl]amino]cyclopropyl]benzoic acid, hydrochloride]"
17,< 100,"C[C@H](NC(=O)C1(N2CC[C@@H](Oc3ccccc3)C2)CCOCC1)c1ccc(C(=O)O)cc1 [Example 152, 4-[(1S)-1-[[4-((3R)-3-Phenoxypyrrolidin-1-yl)tetrahydropyran-4-carbonyl]amino]ethyl]benzoic acid, hydrochloride]"
